These are literature values, as cited in patent US20210228489A1, “COMPOSITIONS FOR TREATING CYSTIC FIBROSIS” (Vertex Pharmaceuticals Incorporated, priority 2017, published 2021).

This series concerns CFTR. Particulars: CFTR modulator; disclosed in PCT Publication No. WO 2016/057572.

For orientation: EC30 means the point of the concentration-response curve where the effect stands at 30%. For the compound `CC(C)COc1cc(F)cc(-c2ccc(C(=O)NS(=O)(=O)c3cccc(N)n3)c(N3C[C@@H](C)CC3(C)C)n2)c1` [Compound I, N-[(6-amino-2-pyridyl)sulfonyl]-6-(3-fluoro-5-isobutoxy-phenyl)-2-[(4S)-2,2,4-trimethylpyrrolidin-1-yl]pyridine-3-carboxamide], the EC30 is less than 3000 nM.
